Data: the supplement of paper PMC10307832

Key:
Test in all cases: relative viability (nuclei count vs DMSO), 5 days (fraction); higher = more cells survive
[1] = test system: ChaGo-K-1
Method in brief: (§1)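 Relative viability is defined as nuclei in treated wells over nuclei in vehicle wells. Duplicate plates were run and medians reported. Lung cancer cell lines in 1536-well plates were dosed by pin tool one day after seeding, with one drug or with a fixed anchor-drug dose plus five library-drug doses (not always all listed) in √10 steps, and nuclei were counted after 5 days.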

[2] = test system: EMC-BAC-2
Method in brief: as §1

[3] = test system: EPLC-272H
Method in brief: as §1

[4] = test system: H3255
Method in brief: as §1

[5] = test system: HCC-44
Method in brief: as §1

[6] = test system: HCC-827
Method in brief: as §1

[7] = test system: LCLC-103H
Method in brief: as §1

[8] = test system: LU99A
Method in brief: as §1

[9] = test system: NCI-H1395
Method in brief: as §1

[10] = test system: NCI-H1651
Method in brief: as §1

[11] = test system: NCI-H1793
Method in brief: as §1

[12] = test system: NCI-H1944
Method in brief: as §1

[13] = test system: NCI-H2085
Method in brief: as §1

[14] = test system: NCI-H2087
Method in brief: as §1

[15] = test system: NCI-H2405
Method in brief: as §1

[16] = test system: NCI-H650
Method in brief: as §1

[17] = test system: NCI-H838
Method in brief: as §1

[18] = test system: COR-L23
Method in brief: as §1

[19] = test system: NCI-H2023
Method in brief: as §1

[20] = test system: NCI-H520
Method in brief: as §1

[21] = test system: SK-MES-1
Method in brief: as §1

CCN(CC)CCCCNc1ncc2cc(-c3cc(OC)cc(OC)c3)c(NC(=O)NC(C)(C)C)nc2n1 + NC(=O)Nc1cc(-c2cccc(F)c2)sc1C(=O)N[C@H]1CCCNC1 [AZD7762] (partner 0.2 µM)
relative viability ([1]; first compound 0.01 µM): 0.885 | relative viability ([1]; first compound 0.03162 µM): 0.927 | relative viability ([1]; first compound 0.1 µM): 0.956 | relative viability ([1]; first compound 0.3162 µM): 0.878 | relative viability ([1]; first compound 1 µM): 0.853 | relative viability ([2]; first compound 0.03162 µM): 1.14 | relative viability ([2]; first compound 0.1 µM): 1.3 | relative viability ([2]; first compound 0.3162 µM): 1.16 | relative viability ([2]; first compound 1 µM): 1.07 | relative viability ([3]; first compound 0.01 µM): 0.199 | relative viability ([3]; first compound 0.1 µM): 0.36 | relative viability ([3]; first compound 0.3162 µM): 0.188 | relative viability ([3]; first compound 1 µM): 0.198 | relative viability ([4]; first compound 0.01 µM): 0.84 | relative viability ([4]; first compound 0.03162 µM): 0.909 | relative viability ([4]; first compound 0.1 µM): 0.911 | relative viability ([4]; first compound 0.3162 µM): 1.11 | relative viability ([4]; first compound 1 µM): 0.855 | relative viability ([5]; first compound 0.01 µM): 1 | relative viability ([5]; first compound 0.03162 µM): 1.02 | relative viability ([5]; first compound 0.1 µM): 1.02 | relative viability ([5]; first compound 0.3162 µM): 1.02 | relative viability ([5]; first compound 1 µM): 1.12 | relative viability ([6]; first compound 0.01 µM): 0.222 | relative viability ([6]; first compound 0.03162 µM): 0.249 | relative viability ([6]; first compound 0.1 µM): 0.217 | relative viability ([6]; first compound 0.3162 µM): 0.236 | relative viability ([6]; first compound 1 µM): 0.196 | relative viability ([7]; first compound 0.01 µM): 0.926 | relative viability ([7]; first compound 0.03162 µM): 0.843 | relative viability ([7]; first compound 0.1 µM): 0.824 | relative viability ([7]; first compound 0.3162 µM): 0.83 | relative viability ([7]; first compound 1 µM): 0.705 | relative viability ([8]; first compound 0.01 µM): 0.325 | relative viability ([8]; first compound 0.03162 µM): 0.486 | relative viability ([8]; first compound 0.1 µM): 0.323 | relative viability ([8]; first compound 0.3162 µM): 0.35 | relative viability ([8]; first compound 1 µM): 0.289 | relative viability ([9]; first compound 0.01 µM): 0.402 | relative viability ([9]; first compound 0.03162 µM): 0.338 | relative viability ([9]; first compound 0.1 µM): 0.422 | relative viability ([9]; first compound 0.3162 µM): 0.392 | relative viability ([9]; first compound 1 µM): 0.309 | relative viability ([10]; first compound 0.01 µM): 0.444 | relative viability ([10]; first compound 0.03162 µM): 0.508 | relative viability ([10]; first compound 0.1 µM): 0.497 | relative viability ([10]; first compound 0.3162 µM): 0.608 | relative viability ([10]; first compound 1 µM): 0.397 | relative viability ([11]; first compound 0.01 µM): 0.541 | relative viability ([11]; first compound 0.03162 µM): 0.581 | relative viability ([11]; first compound 0.1 µM): 0.601 | relative viability ([11]; first compound 0.3162 µM): 0.326 | relative viability ([11]; first compound 1 µM): 0.319 | relative viability ([12]; first compound 0.01 µM): 0.474 | relative viability ([12]; first compound 0.03162 µM): 0.86 | relative viability ([12]; first compound 0.1 µM): 0.513 | relative viability ([12]; first compound 0.3162 µM): 0.505 | relative viability ([12]; first compound 1 µM): 0.494 | relative viability ([13]; first compound 0.01 µM): 0.991 | relative viability ([13]; first compound 0.03162 µM): 1.05 | relative viability ([13]; first compound 0.1 µM): 1.05 | relative viability ([13]; first compound 0.3162 µM): 1.04 | relative viability ([13]; first compound 1 µM): 0.912 | relative viability ([14]; first compound 0.01 µM): 1.21 | relative viability ([14]; first compound 0.03162 µM): 1.31 | relative viability ([14]; first compound 0.1 µM): 1.34 | relative viability ([14]; first compound 0.3162 µM): 1.29 | relative viability ([14]; first compound 1 µM): 1.18 | relative viability ([15]; first compound 0.01 µM): 0.792 | relative viability ([15]; first compound 0.03162 µM): 0.734 | relative viability ([15]; first compound 0.1 µM): 0.812 | relative viability ([15]; first compound 0.3162 µM): 0.803 | relative viability ([15]; first compound 1 µM): 0.628 | relative viability ([16]; first compound 0.01 µM): 0.909 | relative viability ([16]; first compound 0.03162 µM): 0.944 | relative viability ([16]; first compound 0.1 µM): 0.97 | relative viability ([16]; first compound 0.3162 µM): 1.22 | relative viability ([16]; first compound 1 µM): 0.994 | relative viability ([17]; first compound 0.01 µM): 0.734 | relative viability ([17]; first compound 0.03162 µM): 0.956 | relative viability ([17]; first compound 0.1 µM): 0.992 | relative viability ([17]; first compound 0.3162 µM): 1.1 | relative viability ([17]; first compound 1 µM): 0.76

COc1nc(C)cnc1NS(=O)(=O)c1cccnc1-c1ccc(-c2nnco2)cc1 [Zibotentan] + CC1(C)CCC(c2ccc(Cl)cc2)=C(CN2CCN(c3ccc(C(=O)NS(=O)(=O)c4ccc(N[C@H](CCN5CCOCC5)CSc5ccccc5)c(S(=O)(=O)C(F)(F)F)c4)cc3)CC2)C1 [Navitoclax] (partner 0.5 µM)
relative viability ([18]; first compound 0.08 µM): 1.03 | relative viability ([18]; first compound 0.253 µM): 1.08 | relative viability ([18]; first compound 0.8 µM): 1.07 | relative viability ([18]; first compound 2.53 µM): 1.01 | relative viability ([1]; first compound 0.08 µM): 0.95 | relative viability ([1]; first compound 0.8 µM): 0.695 | relative viability ([1]; first compound 2.53 µM): 0.888 | relative viability ([2]; first compound 0.08 µM): 1.11 | relative viability ([2]; first compound 0.253 µM): 1.17 | relative viability ([2]; first compound 0.8 µM): 1.18 | relative viability ([2]; first compound 2.53 µM): 1.19 | relative viability ([3]; first compound 0.08 µM): 1.09 | relative viability ([3]; first compound 0.253 µM): 1.1 | relative viability ([3]; first compound 0.8 µM): 1.16 | relative viability ([3]; first compound 2.53 µM): 1.4 | relative viability ([4]; first compound 0.08 µM): 0.458 | relative viability ([4]; first compound 0.253 µM): 0.603 | relative viability ([4]; first compound 0.8 µM): 0.609 | relative viability ([4]; first compound 2.53 µM): 0.458 | relative viability ([5]; first compound 0.08 µM): 1.24 | relative viability ([5]; first compound 0.253 µM): 0.887 | relative viability ([5]; first compound 0.8 µM): 0.99 | relative viability ([5]; first compound 2.53 µM): 1.04 | relative viability ([6]; first compound 0.08 µM): 1.01 | relative viability ([6]; first compound 0.253 µM): 1 | relative viability ([6]; first compound 0.8 µM): 1.02 | relative viability ([6]; first compound 2.53 µM): 1.02 | relative viability ([8]; first compound 0.08 µM): 0.753 | relative viability ([8]; first compound 0.253 µM): 0.768 | relative viability ([8]; first compound 0.8 µM): 0.791 | relative viability ([8]; first compound 2.53 µM): 0.869 | relative viability ([9]; first compound 0.08 µM): 1.54 | relative viability ([9]; first compound 0.253 µM): 1.03 | relative viability ([9]; first compound 0.8 µM): 1.07 | relative viability ([9]; first compound 2.53 µM): 1.12 | relative viability ([10]; first compound 0.08 µM): 1.08 | relative viability ([10]; first compound 0.253 µM): 0.875 | relative viability ([10]; first compound 0.8 µM): 1 | relative viability ([10]; first compound 2.53 µM): 1.11 | relative viability ([11]; first compound 0.08 µM): 0.506 | relative viability ([11]; first compound 0.253 µM): 0.405 | relative viability ([11]; first compound 0.8 µM): 0.414 | relative viability ([11]; first compound 2.53 µM): 0.486 | relative viability ([12]; first compound 0.08 µM): 1.06 | relative viability ([12]; first compound 0.253 µM): 1.07 | relative viability ([12]; first compound 0.8 µM): 0.977 | relative viability ([12]; first compound 2.53 µM): 1.03 | relative viability ([19]; first compound 0.08 µM): 1.05 | relative viability ([19]; first compound 0.253 µM): 0.922 | relative viability ([19]; first compound 0.8 µM): 1.01 | relative viability ([19]; first compound 2.53 µM): 1.1 | relative viability ([13]; first compound 0.08 µM): 1.23 | relative viability ([13]; first compound 0.253 µM): 1.08 | relative viability ([13]; first compound 0.8 µM): 1.28 | relative viability ([13]; first compound 2.53 µM): 1.27 | relative viability ([14]; first compound 0.08 µM): 1.03 | relative viability ([14]; first compound 0.253 µM): 1.15 | relative viability ([14]; first compound 0.8 µM): 0.983 | relative viability ([14]; first compound 2.53 µM): 1.05 | relative viability ([15]; first compound 0.08 µM): 0.904 | relative viability ([15]; first compound 0.253 µM): 0.725 | relative viability ([15]; first compound 0.8 µM): 0.921 | relative viability ([15]; first compound 2.53 µM): 1.01 | relative viability ([20]; first compound 0.08 µM): 1.13 | relative viability ([20]; first compound 0.253 µM): 0.93 | relative viability ([20]; first compound 0.8 µM): 0.996 | relative viability ([20]; first compound 2.53 µM): 1.37 | relative viability ([17]; first compound 0.08 µM): 1.15 | relative viability ([17]; first compound 0.253 µM): 1.1 | relative viability ([17]; first compound 0.8 µM): 1.18 | relative viability ([17]; first compound 2.53 µM): 1.24 | relative viability ([21]; first compound 0.08 µM): 1.32 | relative viability ([21]; first compound 0.253 µM): 1.14 | relative viability ([21]; first compound 0.8 µM): 1.21 | relative viability ([21]; first compound 2.53 µM): 1.29
